Like-named read-outs stand apart in the source and are kept apart here.
Experiments:
HCT-116 cells [1] = test: Metabolic labeling with [^3H]GCV, [^3H]thymidine, [^3H]dC, HCT-116 cell clones; format: cell-based, human; details: for Phosphorylated metabolite GCVDP / Phosphorylated metabolite GCVMP / Phosphorylated metabolite GCVTP: 116; for Phosphorylated metabolite TMP / Phosphorylated metabolite TTP: 116, [^3H]thymidine labeled
Description: For metabolic labeling, cells (1-2×10^6) were labeled in triplicate with 2 μCi [^3H]GCV ([…]) for 18 hours, then nucleotides were extracted from pelleted cells in 0.2 ml 70% methanol at 4° C. for 15 minutes as previously described (21, 24). An aliquot of each methanol soluble supernatant was analyzed for radioactivity by scintillation counting. The methanol insoluble pellets, representative of a crude DNA fraction, were resuspended in 0.15 ml water and also counted for radioactivity. For deoxpyrimidines, cells were grown to confluency in 60 cm^2 plates, and either 2 μCi [^3H]thymidine (2 μM final) or 2 μCi [^3H]dC (10 μM final) were added for 1 or 2 hours respectively prior to extraction in 70% methanol. Methanol-soluble extracts were concentrated by evaporation under nitrogen, and separated on PEI-cellulose thin layer chromatography plates developed in 0.8 M LiCl for GCV or 0.35 M LiCl for thymidine/dC as previously described (21).
NIH3T3 fibroblasts and the human tumor cell line HCT-116 were transfected with wild-type HSV-1TK or with one of three site specific mutants of amino acid Gln-125. From a panel of multiple HSV-1TK expressing clones, a subset of clones from each cell line expressing wild-type HSV-1 TK, the Asn-125 HSV-1 TK mutant (Asn-125TK) and the Glu-125 HSV-1 TK mutant (Glu-125TK) were selected for comparatively equivalent levels of HSV-1 TK protein expression based on Western blot determinations. In this study, these two sets of HSV-1 TK-expressing NIH 3T3 and HCT-116 cell lines were evaluated for intracellular metabolism of [^3H]GCV, [^3H]thymidine, or [^3H]dC. Cells were labeled with [^3H]GCV for 18 hours, then nucleotides were extracted in ice-cold 70% methanol as previously described (21, 24). The data in Table 3 summarize the amount of total nucleotide metabolites isolated in the methanol-soluble extracts (pmol/10^6 cells) as well as the total amount of methanol-insoluble metabolites representative of incorporation into DNA.
The methanol-soluble metabolites were further separated into their constituent phosphorylated GCV metabolites by thin layer chromatography (21).
Cells were grown to confluency and labeled with either [^3H]thymidine or [^3H]dC for 1 or 2 hours respectively prior to methanol extraction.

HCT-116 cells [2] = test: MTT cell viability, sensitivity to GCV killing, HCT-116 cell lines expressing HSV-1 TKs; format: cell-based, human; details: HCT-116, GCV 0-5 μM, 4 days, FIG. 3B
Description: (§1) Cells were plated in triplicate and exposed to 0, 0.05, 0.5 or 5 μM GCV for four days. Cell viabilities were determined using MTT dye. […] FIG. 3A: NIH3T3 cell lines, FIG. 3B: HCT-116 cell lines; parental cells (noTK, dark bands); Asp125TK (Asp-#, brick band); Glu-125TK (Glu-#, cross-hatch bands); Asn-125TK (Asn-#, gray bands); wild-type HSV-1 TK (WT-#, striped bands).
(§2) A Moloney murine leukemia virus derived plasmid for the expression of HSV-TK, termed pLENTK, has been previously constructed (24). A unique BspEI-MluI restriction fragment within the HSV-TK sequence of pLENTK contains the Gln-125 mutation site. This fragment was removed from wild-type plasmid and replaced with the analogous fragments encoding each mutant. […] Along with wild-type HSV-1 TK plasmid, each mutant-TK plasmid was transfected individually into the murine fibroblast cell line, NIH 3T3, and the human colon tumor cell line, HCT-116, using lipofectin reagent (GIBCO/BRL) (2 μg plasmid, 14 μl lipid per 1×10^6 cells). Cells were maintained in RPMI 1640 media and selected with G418 (200 μg/ml for 2 weeks) as previously described (24). At least eight individual G418 resistant cell clones were picked and grown up for further characterization. Each clone was screened initially for growth inhibition by 25 μM GCV. Those clones that were sensitive were further analyzed for HSV-TK protein expression by Western blot analysis with a polyclonal, rabbit anti-HSV-TK antibody (a gift from Dr. Margaret Black). For each clone, cell numbers were normalized to 1×10^6, and equal protein loading was confirmed for each sample by gel staining. Blotted HSV-1 TK protein bands were visualized on film using ECL chromophore reagents (Amersham). For analysis of GCV sensitivity of different clones, NIH3T3 and HCT-116 cell sets were seeded in 96 well plates in 0.1 ml media (15,000 cells/well). The next day, a dose range of GCV (0.005 to 5 mM, n=3) was added in 0.1 ml media. After 4 days, MTT ([…]) was added for 1.5 hours, followed by DMSO solubilization of the cells and absorbance reading at 540 nm (25).
(§3) cDNA for each mutant was incorporated into a Moloney murine leukemia virus plasmid (24). The plasmids for wild-type HSV-1 TK and each mutant were individually transfected into either NIH3T3 cells or the human colon tumor cell line, HCT-116. Following drug selection in G418, individual cell clones were evaluated for sensitivity to GCV and relative levels of HSV-1 TK expression. Using an HSV-1 TK antibody and extracts normalized by protein and cell number, the relative expression levels of HSV-1 TK in each cell clone were determined.

NIH3T3 cells = test: MTT cell viability, sensitivity to GCV killing, NIH3T3 cell lines expressing HSV-1 TKs; format: cell-based, murine; details: NIH3T3, GCV 0-5 μM, 4 days, FIG. 3A
Description: as §1
as §2, with “For each clone, cell numbers were normalized to 1×10^6, and equal protein loading was confirmed for each sample by gel staining. Blotted HSV-1 TK protein bands were visualized on film using ECL chromophore reagents (Amersham). For analysis of GCV sensitivity of different clones, NIH3T3 and HCT-116 cell sets were seeded in 96 well plates in 0.1 ml media (15,000 cells/well). The next day, a dose range of GCV (0.005 to 5 mM, n=3) was added in 0.1 ml media.” left out
as §3, with “The plasmids for wild-type HSV-1 TK and each mutant were individually transfected into either NIH3T3 cells or the human colon tumor cell line, HCT-116.” left out

HSV-1 TK = format: biochemical, herpes simplex virus type 1; details: for Decrease in kcat for GCV compared to wild-type enzyme: substrate GCV
Description: For determination of Km values of thymidine and GCV for the four enzymes, the filter binding assay was utilized. The basic reaction components were as above, and the following enzyme concentrations, substrate ranges and times were used under linear initial velocity conditions: for [^3H]thymidine: parent Gln-125TK: 0.1 μg TK, 0.1-4 μM, 10 min; Asn-125TK: 0.2 μg TK, 0.25-10 μM, 15 min; Asp-125TK: 4 μg TK, 0.1-2.5 μM, 30 min; Glu-125TK 0.5 μg TK, 0.5-2.5 μM, 15 min. For [^3H]GCV: parent Gln-125TK: 2 μg TK, 5-100 μM, 15 min; Asn-125TK: 0.6 μg TK, 0.5-15 μM, 15 min; Asp-125TK: Not determined; Glu-125TK 4 μg TK, 50-1000 μM, 25 min. Each reaction was done in triplicate. For calculation of kinetic constants, non-linear regression Michaelis-Menten analyses were done using PSI-PLOT version 5.0 (Poly Software International).
Unlike the substrate screening assays presented in Table 1, linear velocity conditions for each enzyme and substrate were established prior to Km determinations.

[3] = substrate ganciclovir, read-out: Km ganciclovir
[4] = substrate thymidine, read-out: Km thymidine

Substance	Phosphorylated metabolite GCVDP (HCT-116 cells [1])	Phosphorylated metabolite GCVMP (HCT-116 cells [1])	Phosphorylated metabolite GCVTP (HCT-116 cells [1])	Phosphorylated metabolite TMP (HCT-116 cells [1])	Phosphorylated metabolite TTP (HCT-116 cells [1])	Dose dependent cell killing by GCV (cell viability, MTT) (NIH3T3 cells)	Decrease in kcat for GCV compared to wild-type enzyme (HSV-1 TK)	kcat ganciclovir (HSV-1 TK; substrate ganciclovir)	Km (HSV-1 TK; [3])	Increase of Km for thymidine relative to wild-type enzyme (HSV-1 TK; substrate thymidine)	kcat thymidine (HSV-1 TK; substrate thymidine)	Km (HSV-1 TK; [4])	also measured
Asn-125	104 pmol/10^6 cells	95 pmol/10^6 cells	533 pmol/10^6 cells	0.2 pmol/10^6 cells	0.9 pmol/10^6 cells	proportionally more cell killing	6 fold	0.08 s⁻¹	50 µM	~20 fold	0.13 s⁻¹	20 µM	Dose dependent cell killing by GCV (cell viability, MTT) (HCT-116 cells [2]): as effective as wild-type HSV-1 TK; Dose dependent cell killing by GCV (cell viability, MTT) (HCT-116 cells [2]; listed as Asn-125TK): proportionally more cell killing; Change of kcat for thymidine relative to wild-type (in words) (HSV-1 TK; substrate thymidine): doubled
Gln-125 (WT): wild-type herpes simplex virus type 1 thymidine kinase with glutamine at position 125, parent enzyme [reference compound]	101 pmol/10^6 cells	96 pmol/10^6 cells	415 pmol/10^6 cells	1.2 pmol/10^6 cells	9.5 pmol/10^6 cells	proportionally more cell killing		0.47 s⁻¹	69 µM		0.06 s⁻¹	0.9 µM	Dose dependent cell killing by GCV (cell viability, MTT) (HCT-116 cells [2]; listed as Gln-125): as effective as wild-type HSV-1 TK; Dose dependent cell killing by GCV (cell viability, MTT) (HCT-116 cells [2]; listed as wild-type): proportionally more cell killing
Glu-125	2.5 pmol/10^6 cells	3.0 pmol/10^6 cells	18 pmol/10^6 cells	0.2 pmol/10^6 cells	0.4 pmol/10^6 cells	minimal cell killing	12 fold	0.04 s⁻¹	473 µM	approximately 3 fold	0.003 s⁻¹	3 µM	Decrease in GCVTP levels (HCT-116 cells [1]; HCT-116 cells, compared to wild-type and Asn-125TK cells): ≥ 23 fold; Dose dependent cell killing by GCV (cell viability, MTT) (HCT-116 cells [2]; listed as Glu-125 HSV-1 TK): just as sensitive to GCV killing; Dose dependent cell killing by GCV (cell viability, MTT) (HCT-116 cells [2]; listed as Glu-125TK): cell viabilities dropped precipitously; Decrease in kcat for thymidine relative to wild-type (HSV-1 TK; substrate thymidine): 20 fold

From patent US6610289B2, “Mutated herpes simplex virus type 1 thymidine kinases and uses thereof” (The Board of Trustees of the University of Arkansas, priority 1998, dated 2003)
